Assay results reported in patent publication US7759392B2, “Pharmaceutical compounds” (Nicox S.A., priority 1999, dated 2010).
Entries after “also recorded” stand apart in the source; their conditions may differ. Like-named read-outs stand apart in the source and are kept apart here.

Legend:
[1] = test system: carrageenan rat paw edema; test: Carrageenan rat paw edema; assay type: in vivo; conditions: for Antiinflammatory activity % paw edema inhibition: rat, intraperitoneally prior to carrageenan, 3 h
Experimental: (§1) Antiinflammatory and analgesic activity have been measured according to carrageenan rat paw edema and acetic acid mouse writhing methods.
Experiments were conducted as described by Al-Swayeh et al., Brit. J. Pharmacol. 129, 343-350 2000). Hind paw volume was determined by plethysmography before and after 3 h after interplantar carrageenan injection (100 microliter, 2% w/v). The compounds were given intraperitoneally […] prior to carrageenan injection. At the end of the experiment animals were killed by cervical dislocation and exsanguination. The Results shown in Table IX are expressed as % of paw edema inhibition, i.e. the paw volume of the controls (vehicle) subtracted of the paw volume of the treated and the obtained difference divided by the paw volume of the controls.

[2] = test system: acetic acid mouse writhing; test: Acetic acid mouse writhing; assay type: in vivo
Experimental: as §1
Experiments were conducted as described by Moore et al. (Br. J. Pharmacol. 102, 198-202 1990). The compounds were given orally 15 minutes prior to intraperitoneal acetic acid (2% w/v in saline pH 2.7, 10 ml/Kg). Mice were transferred immediately to individual observation cages and the number of abdominal constrictions monitored over the following 30 minutes. At the end of the observation period the animals were killed by cervical dislocation and exsanguination. Results are expressed as the number of abdominal constrictions (writhings) per 30 minutes test period, expressed as percentage to those observed in the control group, and are reported in Table IX.

[3] = test system: liver; test: Example F10: liver safety (AST, ALT, glutathione, bilirubin); assay type: in vivo, rat; conditions: rats, 6 hours; for AST %: i.p. (NO-paracetamol 1.4 g/Kg, paracetamol 1.16 g/Kg); for AST % / ALT % / Bilirubin % / Glutathione %: % of vehicle group; for ALT % / Bilirubin % / hepatic damage (in words) / Glutathione %: i.p.; for Glutathione %: liver glutathione
Experimental: After 6 hours the animals were killed by cervical dislocation, trunk blood collected and plasma analysed for aspartate aminotransferase (AST) and alanine aminotransferase (ALT) activity, liver glutathione and bilirubin concentration.

[4] = assay type: biochemical
Experimental: Test 5 is a […] test wherein 0.1 ml aliquots of 10^−4 M methanolic solutions of the tested products are added to test tubes containing a solution formed by 0.2 ml of 2 mM deoxyribose, 0.4 ml of phosphate buffer pH 7.4 100 mM and 0.1 ml of 1 mM Fe^II(NH4)2(SO4)2 in 2 mM HCl. The test tubes are then maintained at 37° C. for one hour. Then in each test tube 0.5 ml of a 2.8% solution in trichloroacetic acid water and 0.5 ml of an aqueous 0.1 M solution of thiobarbituric acid are added, in the order. A reference blank is formed by adding to a test tube containing only the above described aqueous solution of reactants 0.1 ml of methanol. […] A pink coloration is developed the intensity of which is proportional to the quantity of deoxyribose undergone to radical oxidative degradation. The solutions are cooled at room temperature and their absorbances are read at 532 nm against the blank. The inhibition induced by the precursor of B or B1 or C=-Tc-Y—H in the confront of radical production by Fe^II is determined by means of the following formula: (1−As/Ac)×100 wherein As and Ac are respectively the absorbance values of the solution containing the tested compound+the iron salt and that of the solution containing only the iron salt, the compound meets test 5 when the inhibition percentage of radical production as above defined from the precursor of B is higher than or equal to 50%. […]

[5] = test system: erythrocytes; test: Test 4A: inhibition of erythrocyte haemolysis induced by cumene hydroperoxide; conditions: 2 mM, preincubated 30 minutes; cumene hydroperoxide 270 μM; at Tmax
[6] = test system: human endothelial cells of the umbilical vein; test: Test 2 (CIP): apoptosis (DNA fragmentation) induced by cumene hydroperoxide in endothelial cells; assay type: cell-based; conditions: drug 10^-4 M; CIP 5 mM
Experimental: Test 2 (CIP): Protection parameter of endothelial cell against the oxidative stress induced by cumene hydroperoxide (CIP).
Human endothelial cells of the umbilical vein are prepared according to an usual standard procedure. Fresh umbilical veins are filled with a 0.1% by weight collagenase solution and incubated at 37° C. for 5 minutes.
The cells are collected from the perfusate by centrifugation and harvested in culture flasks T-75, pretreated with human fibronectin. The cells are then harvested in the same medium, further added with 10 ng/ml of bovine hypothalamic growth factor. When the cells of the primary cell culture (i.e. that directly obtained from ex-vivo) form a single layer of confluent cells (about 8,000,000 cells/flask), the culture is stopped and the layers washed and trypsinized. The cellular suspensions are transferred into the wells of a cell culture plate having 24 wells, half of which is then additioned with the same culture medium containing the drug at a 10^−4M concentration, and harvested in a thermostat at 37° C. at a constant moisture. Only the cells coming from said first sub-cultures are used for the experiments with cumene hydroperoxide (CIP).
Before starting the test, the cellular culture medium is removed and the cellular layers are carefully washed with a physiologic solution at a temperature of 37° C. The wells of the culture plate are then incubated for one hour with CIP at a 5 mM concentration in the culture medium. […] 5 replicates for each sample are carried out.
Human endothelial cells of the umbilical vein are prepared according to a standard method. Fresh umbilical veins are filled with a collagenase solution 0.1% by weight and incubated at 37° C. for 5 minutes.
The cells are collected from the perfusate by centrifugation at 800 rpm and harvested in culture flasks T-75, pretreated with human fibronectin. Cells are then harvested in the same medium, added with bovine hypothalamic growth factor (100 ng/ml). When the cells of the primary cell culture (the cells directly removed from ex-vivo umbilical vein) form a single layer of confluent cells (about 8,000,000 cells/flask), harvesting is stopped and the layers are washed and trypsinized. The cellular suspensions are transferred into wells of a culture plate having 24 wells, half of said wells being added with the same culture medium containing the drug at a 10^−4M concentration, and harvested in a thermostat at 37° C. at a constant moisture (90%), CO2=5%. When the drug is not soluble in the culture medium, it is formerly dissolved in a small amount of dimethylsulphoxide. The maximum amount of dimethylsulphoxide which can be added to the culture medium is 0.5%. Only the cells coming from these first subcultures are used for the tests with cumene hydroperoxide (CIP).
Before starting the test, the cellular culture medium is removed and the cellular layers are carefully washed with a standard physiologic solution buffered with phosphate 0.1 M pH 7.0, at the temperature of 37° C. The content of each well is then incubated for one hour with a CIP suspension in the culture medium at a 5 mM concentration. Evaluation of the cellular damage (apoptosis) is carried out by determining the percent variation of the DNA fragmentation in the cultures containing the drug+CIP with respect to the controls treated with CIP only. […] The fluorescence of each sample was determined on 5 replicates. Statistic evaluation has been made with t Student test (p<0.01).

[7] = test system: human endothelial cells of the umbilical vein; test: Experiment F6: apoptosis (DNA fragmentation) induced in endothelial cells by hydrogen peroxide; assay type: cell-based; conditions: Endothelial cell, products 100 mmoles/l, hydrogen peroxide 200 mmoles/l, 18 hours, read-out: Apoptosis % (respect to the controls treated only with CIP)
Source text: It has been Evaluated the Activity of Some of the Compounds Object of the Present Invention and of the Corresponding Precursor Drugs in Inhibiting DNA Degradation (Apoptosis) in Endothelial Cells Exposed to the Action of Hydrogen Peroxide (HP)
Hydrogen peroxide is a mild oxidant and is considered as an essential mediating agent in pathologies associated with oxidative stress (B. Halliwell, J. Gutteridge “Free Radicals in Biology and Medicine”, page 416, 1993). Therefore the pharmacological activity of compounds to be used under oxidative stress conditions is evaluated through their capability of neutralizing the cytolesive effects of the hydrogen peroxide (B. Halliwell, J. Gutteridge “Free Radicals in Biology and Medicine”, page 416, 1993).
The method described by Herman et Al. (Herman C., Zeiner M. A., Dimmeler S., Arterioscler. Thromb. Vasc. Biol. 17 (12), 3588-82, 1997).
Human endothelial cells of the umbilical vein are prepared according to a standard method. Fresh umbilical veins, just removed, are filled with a solution of collagenase at 0.1% and incubated at 37° C. for 5 minutes.
Subsequently the veins are perfused with medium M 199 (GIBCO, Grand Island, N.Y.) pH 7.4 containing 20% of human serum. The cells are collected from the perfusate by centrifugation at 800 rpm and harvested in culture flasks T-75, pretreated with human fibronectin. […]

[8] = test system: gastrointestinal mucosa; conditions: male, Wistar, rat, in vivo, 6 h
Experimental: Gastric lesions induced by administration of the compounds of the invention in the confront of the corresponding drug precursor.
The animals have been sacrificed 6 hours after the administration. The gastrointestinal mucosa has been removed and inspected. The incidence of the gastrointestinal damage has been evaluated as described in experiment F1.

SMILES | Antiinflammatory activity % paw edema inhibition [1] [%] | AST % [3] [%] | ALT % [3] [%] | Bilirubin % [3] [%] | Glutathione % [3] [%] | inhibition of apoptosis induced by CIP (in words, p<0.01) [6] | also measured
CC(=O)Nc1ccc(OC(=O)CCCO[N+](=O)[O-])cc1 [Example 1, 4-nitroxybutyric acid 4′-acetylamino phenyl ester] | 69 | 160 | 57 | 136 | 49 |  | antiinflammatory activity compared with paracetamol (in words) ([1]; carrageenan paw edema): much more active in both tests than paracetamol; analgesic activity compared with paracetamol (in words) ([2]; acetic acid writhing): much more active in both tests than paracetamol; hepatic damage (in words) ([3]; listed as NO-paracetamol): much lower increases of AST and ALT; also recorded: the bilirubin concentration is lower than that in the control groups; also recorded: able to spare the liver
OCCOCCO [Diethylenglycol] |  |  |  |  |  |  | % Radical inhibition from Fe^II ([4]; 10^-4 M methanolic solution, 37° C. one hour, absorbance 532 nm): 0%; % Haemolysis inhibition [5]: 33.4%
CC(=O)Nc1ccc(O)cc1 [Paracetamol, paracetamol] | 34 | 330 | 171 | 200 | 52 | do not significantly inhibit apoptosis; also recorded: not significantly different with respect to that of the controls | Analgesic activity % writhing inhibition ([2]; mice, orally 15 minutes prior to intraperitoneal acetic acid, 30 minutes): 40%; hepatic damage (in words) [3]: causes hepatic damage
NCCCC(O)(P(=O)(O)O)P(=O)(O)O [Alendronate, sodic alendronate] |  |  |  |  |  | do not significantly inhibit apoptosis | activity at 100000 µM [7]: 18%; Gastropathy % incidence [8]: 100%
OCCCCO [1,4-Butandiol] |  |  |  |  |  |  | % Radical inhibition from Fe^II [4]: 0%
